In patent publication US20210393667A1, “TARGET FOR ANTI-CANCER THERAPY” (Phoremost Limited, priority 2018, published 2021):
Like-named read-outs stand apart in the source and are kept apart here.

What was measured:
HEK293FT cells [1] = assay: CellTitre Glo viability assay; format: cell-based; conditions: HEK293FT cells, 3.33 uM, 72 hours
Experimental: (§1) A 96 well plate was seeded with 100 μl of transfected cells and incubated overnight. A 2× solution of clofarabine was made to 100 μM in DMEM and 9× two-fold dilutions were made in growth media. A parallel dilution series was made with equal concentrations of DMSO as a control. 100 μL of clofarabine or DMSO solution was added to wells of 96 well plates (6 replicates per concentration). PBS was added to outer wells of 96 well plates and incubated for 48 hours. To 3 wells per concentration a 1:1 ratio of CellTiter Glo (Promega) was added. To remaining wells, an equal volume of NanoGlo (Promega) reagent was added. 100 μL was aliquoted from each well to a 96 well, white walled, white bottomed plate and luminescence read. Percentage viability was calculated for all conditions in comparison to an untreated control and nanoluciferase reading were normalised to viability.
(§2) For triapine treatment, cells were initially seeded into 6 well plates and transfected with the pcDNA3.1 Hygro CA18Nluc construct, as in the detailed method for clofarabine treatment. After transfection, cells were trypsinised and seeded into white-walled 384 well plates at a density of 2000 cells per well in a final volume of 30 uL. After 24 hours, cells were treated with compounds or a DMSO solvent control in a final volume of 3.3 uL. Compound stock was diluted to achieve a final concentration of 10 uM, and compounds were serially diluted in DMSO by three-fold to generate the dose-response curve. Compound was subsequently diluted in media, and then added to cells in 3.3 uL, ensuring a final concentration of DMSO no greater than 0.5%. PBS was added to outer wells of the 384 well plates and incubated for 72 hours. To 3 wells per concentration, 5 uL of CellTiter Glo (Promega) was added. To remaining wells, 30 uL of NanoGlo (Promega) reagent was added and incubated at room temperature for 30 minutes. Luminescence was read. Percentage viability was calculated for all conditions in comparison to an untreated control and nanoluciferase reading were normalised to viability.

[2] = tested on: CA18-NanoLuc frameshift reporter in HEK293FT cells; assay: Frameshift reporter (FSR) CA(18)-NanoLuc assay, small molecule treatment; format: cell-based; conditions: for increase in FSR signal: 72 hours, vs untreated FSR luminescence; for FSR activity (in words): dose range
From the text: In order to read out mismatch repair (MMR) and hypermutability in mammalian cells, a Frameshift reporter (FSR) assay was used. The assay specifically focuses on frameshifts because, of all mismatch mutations, these are the ones that most abundantly generate neoantigens (see, for example, Turajlic et al. Lancet Oncol. 2017 (18; 1009-21). The assay based on the activity of the NanoLuciferase (NanoLuc®, Promega) reporter enzyme was developed (the “CA(n)-NanoLuc assay”). Copies of the CA dinucleotide repeat (referred to as “CA(n)”) were cloned upstream of the NanoLuc coding sequence. Typically 18 copies of the CA dinucleotide repeat (CA(18)) were used. Alternatively, the assay used 20 copies (CA(20)). This CA(n) tract renders the NanoLuc coding sequence out of frame, and therefore there is no reporter enzyme expression and no activity. The CA(n) tract is, however, a sequence which is subject to frequent DNA replication errors, and is therefore reliant on the MMR pathway to repair any post-replicative DNA mismatches. In a MMR-competent cell, any errors are efficiently repaired, the NanoLuc coding sequence remains out of frame and thus reporter activity is low. If, however, MMR is inhibited either by a small molecule or by genetic loss of any of the MMR machinery, post-replicative errors may remain unrepaired, frameshift mutations may occur, and therefore some cells in a population will now express a functional NanoLuc protein.
MMR inhibition can therefore be reported as an increase in NanoLuc® activity when a plasmid containing a CA repeat, such as the CA(18) NanoLuc construct, is transfected into cells. Since NanoLuc® is a highly processive enzyme with a large and linear dynamic range, it was predicted that only a small number of MMR errors would be required to generate a positive signal, making for a sensitive assay with a large signal to noise ratio.
In addition, it has been shown that inhibition of RNR causes altered pools of dNTP resulting in increased mutation rates. Relatively modest dNTP pool deviations induce exceptionally strong mutator phenotypes which cause saturation of the DNA mismatch repair system and lead to detection in the FSR assay system.
HEK293FT cells seeded at 600,000 cells per well in a 6 well plate and incubated overnight. Media was replaced and incubated a further 2 hours before transient transfection of pcDNA3.1 Hygro CA18Nluc (0.5 μg). After 4 hours media was replaced and incubated overnight. Media was aspirated, cells washed with PBS and trypsinised. Cells were pelleted by centrifugation (1000×g, 5 mins), washed in PBS, centrifuged again and resuspended in fresh media to […].
as §1
For triapine treatment, cells were initially seeded into 6 well plates and transfected with the pcDNA3.1 Hygro CA18Nluc construct, as in the detailed method for clofarabine treatment. After transfection, cells were trypsinised and seeded into white-walled 384 well plates at a density of 2000 cells per well in a final volume of 30 uL. After 24 hours, cells were treated with compounds or a DMSO solvent control in a final volume of 3.3 uL. […]

[3] = CellTitre Glo viability assay; format: cell-based; conditions: human
Experimental: as §1, §2

[4] = recommended dose for adult acute leukemia, 40 mg/m2/day×5 days; cited from earlier work
CT26 cells [5] = assay: Whole exome sequencing of CT26 cells after 100 days of clofarabine; format: cell-based, mouse; conditions: 100 nM, relative to matched vehicle only control
Experimental: CT26 cells, cultured in RPM11640 were dosed with 100 nM clofarabine or with DMSO only. Cells were passaged and re-dosed every 72 hours. Cells were harvested at 100 days, and single-cell colonies (SSCs) derived for each sample. After expansion over 8-10 days, genomic DNA was extracted from SSC pellets and whole exome sequencing (WES) performed following methods such as those described, for example, in WO2017/182783, see page 33, line 21 onwards and page 34, lines 1 to 5.
Somatic single nucleotide variants (SNVs), multiple-nucleotide polymorphisms (MNPs), and insertion-deletion (InDel) mutations were identified using the GATK4 Toolkit and GATK's Mutect2 (version 4.1.4.0) to analyse the WES data. Prior to mapping the read sequences to the reference genome (mm10), read data quality and adapter trimming and QC was performed using TrimGalore and a Q-score cut-off of 30. Reads were aligned to mm10 using BWA mem (version 0.7.17-r1188). Duplicate reads were marked using MarkDuplicates (Picard, GATK4 copy). Variant discovery using Mutect2 was performed using a custom generated interval list and Panel of Normals (PON) resource. The interval list was derived for a BED file of canonical transcript exon positional information for mm10, which was generated using the UCSC TableBrowser. The PON was derived for matched CT26 WES data using Mutect2, GenomicsDBImport, and CreateSomaticPanelOfNormals. Variant filtering was performed using FilterMutectCalls (GATK4). Variants detailed in the VCF files generated using FilterMutectCalls were further filtered using a shell script in order to keep only variants meeting the quality control thresholds applied by FilterMutectCalls and exclude variants identified for reads mapping to unlocalized and unplaced contigs. The functional effects of the identified variants (on genes, transcripts, protein sequences, and regulatory regions) were predicted using the Ensembl Variant Effect Predictor (VEP).

HEK293FT cells [6] = assay: GI50, standard dosimetric assay testing for cell growth; format: cell-based
CT26 cells [7] = assay: T cell killing assay with clofarabine-treated CT26 cells; format: cell-based, mouse; conditions: CT26 cells treated with 100 nM for 100 days; stimulated and unstimulated, C57BL/6- and Balb/c-derived CD8 T cells, 10:1, 72 h
Experimental: T-cell extraction: Spleen from C56BL/6 and Balb/c mice was homogenised aseptically using a cell strainer and syringe plunger. RBC was lysed using lysis buffer and remaining cells washed and counted. Dynabeads untouched mouse CD8 cell kit (Thermofisher: 11417D) used to isolate CD8 cells using negative selection. Half these cells were cultured as unstimulated for assay controls but the majority was cultured with Dynabeads Mouse T-activator CD3/CD28 beads for 24 h prior to assay. T-cell assay: CT26 tumour cell lines (parental as control) was plated at 3,000 cells per well into a 96 well plate; effector cells at a ratio of 10:1 was added along with appropriate stains and imaged on the EVOS microscope over a period of 72 h.

## Nc1nc(Cl)nc2c1ncn2[C@H]1C[C@H](O)[C@@H](CO)O1 [cladribine, Cladribine]
HEK293FT cells [1]
  reduction in viability: no reduction in viability
[2]; 3.33 uM
  increase in FSR signal: 226%

## Nc1nc(Cl)nc2c1ncn2[C@@H]1O[C@H](CO)[C@@H](O)[C@@H]1F [clofarabine, (2R,3R,4S,5R)-5-(6-amino-2-chloropurin-9-yl)-4-fluoro-2-(hydroxymethyl)oxolan-3-ol]
[3]
  viability at 72 h, 0.05 µM: 92%
[4]
  plasma levels: around 1 μM
CT26 cells [5]
  overall burden of mutations (largely SNV): does not increase substantially
  proportion of frame-shift causing InDel mutations: elevated
  total count of frame-shift causing InDel mutations: elevated
HEK293FT cells [6]
  GI50: 430 nM
[2]; 50 nM
  increase in FSR signal: 40%
[2]
  FSR activity (in words): dose-dependent increase in FSR activity
CT26 cells [7]
  T cell killing: significantly increase T cell killing

## Nc1ccn([C@@H]2O[C@H](CO)[C@@H](O)C2(F)F)c(=O)n1 [gemcitabine]
[3]
  cytotoxicity at 72 h, 370 nM: 50%
HEK293FT cells [6]
  GI50: 440 nM
[2]; 370 nM
  increase in FSR signal: 300%
[2]
  FSR activity (in words): causes an increase in FSR activity

## NC(=S)N/N=C/c1ncccc1N [triapine]
[3]; HEK293FT cells, 370 nM, 72 hours, vs DMSO control, read-out: reduction in viability
  cytotoxicity at 72 h, 370 nM: 23%
HEK293FT cells [6]
  GI50: 600 nM
[2]; 370 nM
  increase in FSR signal: 400%
